Counter-ions that a name gives are not always drawn.
How the values were obtained:
[1] = test system: cholesterol synthesis (liver slices of rat); test: lipid biosynthesis by tissue slices of liver of rat: cholesterol synthesis; format: cell-based; details: 10 μg/ml, percentage to the control; for activity at 10 µg/mL: Rattus norvegicus, 2 h, read-out: Cholesterol Synth.; for Cholesterol Synth.: 120 min
Procedure: (§1) 5) Action of the compounds of the present invention to lipid biosynthesis by tissue slices of liver of rat
(§2) Test method: Krebs-Ringer-Bicarbonate solution (1 ml) containing 1 mM of ^14 C-acetic acid and 10 μg/ml of the test substance was added to 100 mg of liver slices of rat, the air was substituted with a mixed gas (oxygen:carbon dioxide=95:5) and incubation was conducted at 37° C. for 2 hours. After completion of the reaction, 15% ethanolic solution of potassium hydroxide was added and saponification was conducted at 75° C. for 2 hours. A part of the saponified solution was subjected to a measurment of protein. Residual saponified solution was extracted with petroleum ether and the radioactivity of the petroleum ether layer was measured to determine the cholesterol synthesizing activity. The aqueous layer was acidified with 6N hydrochloric acid, extracted with petroleum ether and the radioactivity of the extract was measured to determine fatty acid synthesizing activity. The values were expressed in terms of percentage to the control after calculating the mol numbers (nmol/mg) of the ^14 C-acetic acid incorporated into each extract per protein (nmol/mg protein).

[2] = test system: fatty acid synthesis (liver slices of rat); test: lipid biosynthesis by tissue slices of liver of rat: fatty acid synthesis; format: cell-based; details: 10 μg/ml, percentage to the control; for activity at 10 µg/mL: Rattus norvegicus, 2 h, read-out: Fatty Acid Synth.; for Fatty Acid Synth.: 120 min
Procedure: as §1, §2

[3] = test system: total cholesterol (TC) in serum; test: lowering total cholesterol (TC) in serum using normal rhesus monkeys; format: in vivo; details: oral
Text: 1) An action of lowering total cholesterol (TC) in serum using normal rhesus monkeys. Test Method: Male rhesus monkeys of 2-5 years age (body weight: 3.0-6.4 kg; Experiment No.1) or male rhesus monkeys of 2-6 years age (body weight: 3.5-8.0 kg; Expt. Nos. 2, 3 and 4) were subjected to the experiments. During the experiment, solid feed (manufactured by Oriental Yeast) was given at the dose of 150 g once daily. Each group consisted of 2 to 6 monkeys. The substance to be tested was in a form of suspension in 0.5% methylcellulos solution. The suspension was given orally using rubber probe at the dose of 30, 50 or 100 mg/kg for seven days (Expt. Nos. 1 and 2(2)) or for 28 days (Expt. Nos. 2(1), 3 and 4). Blood was taken from saphena in lower limbs one week and immediately before the administration and also 7, 14, 21 and 28 days after the administration of the suspension whereby serum TC was measured. The change rate of serum TC was calculated by the following expression. The change rate of serum TC=(ATC-BTC)/BTC×100 In the expression, ATC is the TC after administration of the substance tested while BTC is the TC before the administration (average of those one week and immediately before the administration).

Mice of ddY-strain = test: Acute Toxicity; format: in vivo; details: oral, 2 g/kg
Procedure: Mice of ddY-strain (7 weeks age; four mice per group) were fasted overnight, the compound of Example 4 of the present invention suspended in 0.5% methylcellulose solution was orally administered at 2 g/kg and the general symptoms until 3 hours after that and those until one week thereafter were checked.

[4] = test system: fatty acid synthesis (liver slices of rat); test: lipid biosynthesis of tissue slices of liver of rat (part 2): fatty acid synthesis; format: cell-based; details: 2 h, 10 μg/ml, percentage to the control
Procedure: as §2
(§3) 6) Action of the compounds of the present invention to lipid biosynthesis of tissue slices of liver of rat (part 2)
(§4) The activity of the present invention compound was measured by the same manner as above 5). The values were expressed in terms of percentage to the control after calculating the mol numbers (nmol/mg) of the ^14 C-acetic acid incorporated into each extract per protein (nmol/mg protein).

[5] = test system: cholesterol synthesis (liver slices of rat); test: lipid biosynthesis of tissue slices of liver of rat (part 2): cholesterol synthesis; format: cell-based; details: 2 h, 10 μg/ml, percentage to the control
Procedure: as §2, §3, §4

Lp(a) [6] = test: Influence on Lp(a): lowering Lp(a) in plasma in crab-eating monkeys; format: in vivo; details: 0.3% in feed, average ± S.E.
Procedure: Five to six crab-eating monkeys (male; body weight ranging 5-9 kg) as one group were fed and, to the group administered with the test sample, the feed containing 0.3% of this invention compound (that of Example 4) was fed while, to the control group, usual feed was given. The Lp(a) concentrations in the plasma were measured by the following method at the initiation of the administration, 13 weeks thereafter and 5 weeks after completion of the administration.
Commercially-available kit manufactured by Biopool Co, was used. In accordance with the procedures as given in the kit, PET buffer and sample buffer were prepared. To 20 μl of the plasma was added 1 ml of sample buffer and to 10 μl or 20 μl the resulting diluted liquid was further added 1.01 ml or 1 ml of the sample buffer to that the liquid diluted to an extent of 5202 times or 2601 times was prepared. In accordance with the steps as instructed by the kit, each 20 μl of the diluted sample was added to each well and measurement was conducted by duplicate. The result was calculated from the working curve prepared from the data obtained for the standard human Lp(a) in the kit.

serum TC = test: Serum TC lowering action in normal crab-eating macaques; format: in vivo
Text: 2) Serum TC lowering action in normal crab-eating macaques.
Test Method: Male crab-eating macaques (body weight: 2.5-6.6 kg) were subjected to the experiments. During the expriment period, the feed (manufactured by Oriental Yeast) containing 0.1% (Expt. No. 1) or 0.3% (Expt. No. 2) of the compound of Example 4 was given once daily a 35 g/kg for 5 weeks (0.1%) or for 8 weeks (0.3%). Usual feed for monkeys was given to the control group. Blood was taken immediately before the administration and 1, 2 and 5 weeks after the administration in the case of 0.1% mixed feed or, in the case of 0.3% mixed feed, immediately before and 2, 4, 6 and 8 weeks after the administration. All operations for taking blood were conducted prior to giving the feed and the serum TC therein was measured. The change rate of the serum TC was calculated by the following expression.
The change rate of serum TC=(ATC-BTC)/BTC×100
In the expression, ATC is the TC after administration of the substance tested and BTC is the TC immediately before administration.

Lp(a) [7] = details: J. Internal Medicine 226 271-276 (1989); cited from earlier work

With CC(C)(C)c1ccc2oc(C(O)COc3ccc(C(=O)O)cc3)cc2c1 (single isomer, unassigned; (+)) [Example 11, (+)-5-tert-Butyl-2-[2-(4-carboxyphenoxy)-1-hydroxyethyl]benzofuran] the activity at 10 µg/mL ([1]; Expt. 1) was 35%, the activity at 10 µg/mL ([1]; Expt. 2) was 24% and the activity at 10 µg/mL ([2]; Expt. 1) was 12%. The activity at 10 µg/mL ([2]; Expt. 2) was 18%.

For CC(C)(C)c1ccc2oc(C(O)COc3ccc(C(=O)O)cc3)cc2c1 (single isomer, unassigned; (-)) [Example 12, (-)-5-tert-Butyl-2-[2-(4-carboxyphenoxy)-1-hydroxyethyl]benzofuran], the “Cholesterol Synth.” value ([1]; Expt. 1) was 33%, the “Cholesterol Synth.” value ([1]; Expt. 2) was 27% and the “Fatty Acid Synth.” value ([2]; Expt. 1) was 16%. For the same molecule, the “Fatty Acid Synth.” value ([2]; Expt. 2) was 14%.

In the case of CC(C)(Oc1ccc(CCNC(=O)c2ccc(Cl)cc2)cc1)C(=O)O [Bezafibrate, reference compound], the “TC Change Rate” value ([3]; 100 mg/kg, after 7 days) is reported as -13%, the “TC Change Rate” value ([3]; 100 mg/kg, after 14 days) is reported as -10% and the “TC Change Rate” value ([3]; 100 mg/kg, after 21 days) is reported as 3%. For the same molecule, the “TC Change Rate” value ([3]; 100 mg/kg, after 28 days) was -7%.

With CC(C)(C)c1ccc2oc(C(O)COc3ccc(C(=O)O)cc3)cc2c1 (stereo not shown) [Example 4, 5-tert-Butyl-2-[2-(4-carboxyphenoxy)-1-hydroxyethyl]benzofuran] the “Acute toxicity: deaths” value (Mice of ddY-strain; observed until one week) was “no animals tested were dead”, the “Acute toxicity: general symptoms” value (Mice of ddY-strain; until 3 hours and until one week thereafter) was “no abnormal symptoms were noticed” and the activity at 10 µg/mL [4] was 29%. For the same molecule, the activity at 10 µg/mL [5] was 61%, the “Plasma Lp(a)” value (Lp(a) [6]; 5 weeks after completion of administration) was 60.1 ± 7.9 mg/dL and the “Plasma Lp(a)” value (Lp(a) [6]; 13 weeks thereafter) was 9.2 ± 1.2 mg/dL. The “Plasma Lp(a)” value (Lp(a) [6]; Immed. after administration (text: at the initiation)) was 73.2 ± 8.5 mg/dL, the “TC Change Rate” value (serum TC; 0.1% in the feed, after 1 week) was 16% and the “TC Change Rate” value (serum TC; 0.1% in the feed, after 2 weeks) was -18%. For the same molecule, the “TC Change Rate” value (serum TC; 0.1% in the feed, after 5 weeks) was -31%, the “TC Change Rate” value (serum TC; 0.3% in the feed, after 2 weeks) was -32% and the “TC Change Rate” value (serum TC; 0.3% in the feed, after 4 weeks) was -46%. The “TC Change Rate” value (serum TC; 0.3% in the feed, after 6 weeks) was -42%, the “TC Change Rate” value (serum TC; 0.3% in the feed, after 8 weeks) was -37% and the activity at 10 µg/mL ([1]; Expt. 1) was 41%. The activity at 10 µg/mL ([1]; Expt. 2) was 27%, the activity at 10 µg/mL ([2]; Expt. 1) was 20% and the activity at 10 µg/mL ([2]; Expt. 2) was 12%.

For CC(C)c1ccc2oc(C(O)COc3ccc(C(=O)O)cc3)cc2c1 (stereo not shown) [Example 6, 2-[2-(4-Carboxyphenoxy)-1-hydroxyethyl]5-isopropylbenzofuran], the “TC Change Rate” value ([3]; 100 mg/kg, after 7 days) was -42%.

In the case of CC(C)c1ccc2oc(C(O)COc3ccc(C(=O)O)cc3)cc2c1 (stereo not shown) [Example 8, 2-[2-(4-Carboxyphenoxy)-1-hydroxyethyl]-5-isopropylbenzofuran sodium salt], the “TC Change Rate” value ([3]; 50 mg/kg, after 7 days) is reported as -31%, the “TC Change Rate” value ([3]; 50 mg/kg, after 14 days) is reported as -31% and the “TC Change Rate” value ([3]; 50 mg/kg, after 21 days) is reported as -44%. The “TC Change Rate” value ([3]; 50 mg/kg, after 28 days) was -51%.

For CC(C)c1ccc2oc(C(O)COc3ccc(C(=O)O)cc3)cc2c1 (stereo not shown) [Example 9, 2-[2-(4-Carboxyphenoxy)-1-hydroxyethyl]-5-isopropylbenzofuran calcium salt], the “TC Change Rate” value ([3]; 30 mg/kg, after 7 days) was -19%, the “TC Change Rate” value ([3]; 30 mg/kg, after 14 days) was -34% and the “TC Change Rate” value ([3]; 30 mg/kg, after 21 days) was -29%. For the same molecule, the “TC Change Rate” value ([3]; 30 mg/kg, after 28 days) was -24%.

In the case of CC(C)c1ccc2oc(C(O)COc3ccc(CO)cc3)cc2c1 (stereo not shown) [Example 10, 2-[1-Hydroxy-2-(4-hydroxymethylphenoxy)ethyl]-5-isopropylbenzofuran], the “TC Change Rate” value ([3]; 100 mg/kg, after 7 days) is reported as -32%.

Molecule CC(C)(C)c1ccc2oc(C(=O)COc3ccc(C(=O)O)cc3)cc2c1 [Example 14, 5-tert-Butyl-2-(4-carboxyphenoxyacetyl)benzofuran] has an activity at 10 µg/mL [4] of 32% and an activity at 10 µg/mL [5] of 64%.

For CC(=O)OC(COc1ccc(C(=O)O)cc1)c1cc2cc(C(C)C)ccc2o1 (stereo not shown) [Example 17, 2-[1-Acetoxy-2-(4-carboxyphenoxy)ethyl]-5-isopropylbenzofuran], the activity at 10 µg/mL [4] was 33% and the activity at 10 µg/mL [5] was 66%.

For O=C(O)c1cccnc1 [Nicotinic acid], the adverse reactions (Lp(a) [7]) is given as “flushing” and the “concentration of Lp(a) in blood” value (Lp(a) [7]) is given as “lowers the concentration of Lp(a) in blood”.

Source: patent US5432195A, “Benzofuran derivative and pharmaceutical composition” (Nippon Shinyaku Company Limited, priority 1991, dated 1995)
